The text below walks through data of EPA's ToxValDB 9.5.

Series [1] has as its system Rattus norvegicus. The settings on record: oral.
Series [2] has as its system Rattus norvegicus. As to conditions: oral. The source holds these as a separate data set.
The test system of series [3] is Rattus norvegicus. The settings on record: repeat dose other; oral.
Series [4] deals with Rattus norvegicus. As to conditions: oral. This is another data set of the same source.
Series [5] deals with Rattus norvegicus. As to conditions: oral. The source holds these as a separate data set.
Series [6] deals with Rattus norvegicus. As to conditions: oral. The source holds these as a separate data set.
Series [7] concerns Mus musculus. The settings on record: M/F.
For series [8], the system named is Mus musculus. As to conditions: oral, gavage, B6C3F1.
Series [9] has as its system Rattus norvegicus. The settings on record: subchronic, oral, gavage.
The test system of series [10] is Rattus norvegicus.
The mark [11] stands for this setting: chronic, M/F, body weight depression.
Setting [12] is: chronic, duration: 2 years, diet, M/F, Crl:CD(SD), reduced weight gain.
Where [13] appears, read: subchronic, M/F, reduced mean terminal body weight (males).
Setting [14] is: subchronic, gavage, M, Induction of hepatic enzymes + liver histopathology.

The structures appear in SMILES notation.

Usually NOAEL stands for the highest dose or exposure tested at which no adverse effect was seen. In general, LOAEL refers to the lowest dose or exposure tested at which an adverse effect was seen. Consider `[Cr+6]` [Chromium (VI) ion], for which the NOAEL with Rattus norvegicus [1] (chronic, duration: 1 years, drinking water, None Observed) is 2.4 mg/kg-day; in the series on Rattus norvegicus [2] (chronic, duration: 1 years, drinking water, M/F, no effects), 25 mg/L; in the series with Rattus norvegicus [3], 3.28 mg/kg-day. In the series with Rattus norvegicus [3], this compound showed an LOAEL of 13.1 mg/kg-day.
On to `O=C1CCCCC1` [Cyclohexanone], for which the NOAEL with Rattus norvegicus [4] (chronic, duration: 25 weeks, drinking water, M, Fischer 344, Whole Body Effects) stood at 731 mg/kg-day. In the series with Rattus norvegicus [2] (setting [11]), the LOAEL was 910 mg/kg-day and the NOAEL was determined as 462 mg/kg-day.
With `C[C@@H]1C[C@H]2[C@@H]3CCC4=CC(=O)C=C[C@]4(C)[C@@]3(F)[C@@H](O)C[C@]2(C)[C@@]1(O)C(=O)CO` [Dexamethasone], the NOEL in the series with Rattus norvegicus [5] (short-term, gavage, Induction of hepatic tyrosine aminotransferase activity) is 0.0015 mg/kg-day.
In the series on Rattus norvegicus [5] (setting [12]), `CN[C@@H]1[C@H](O[C@H]2[C@H](O[C@H]3[C@H](O)[C@@H](O)[C@H](N=C(N)N)[C@@H](O)[C@@H]3N=C(N)N)O[C@@H](C)[C@]2(O)CO)O[C@@H](CO)[C@H](O)[C@H]1O` [Dihydrostreptomycin] registered an LOEL of 10 mg/kg-day and an NOEL of 5 mg/kg-day.
For orientation: LD50 means the dose at which mortality reaches 50%. A lower LD50 goes with a more toxic substance. Take `COC(=O)c1ccccc1C(=O)OC` [Dimethyl phthalate]: the LOAEL in the series on Rattus norvegicus [4] (short-term, duration: 1 weeks, diet, M, Wistar) worked out at 302 mg/kg-day. The same compound showed an LD50 in the series with Rattus norvegicus [6] (acute) of 6900 mg/kg. Moreover, the NOAEL is over 3570 mg/kg-day in the series on Rattus norvegicus [6] (developmental, duration: 10 days, diet, Sprague-Dawley) and 840 mg/kg-day in the series on Rattus norvegicus [6] (reproduction developmental, duration: 10 days, diet, F, Sprague-Dawley).
Take `CC[n+]1c(-c2ccccc2)c2cc(N=NNc3cccc(C(=N)N)c3)ccc2c2ccc(N)cc21` [Isometamidium]: in the series on Rattus norvegicus [5] (subchronic, duration: 13 weeks, gavage, M/F, Crl:CD(SD) BR), the NOAEL came to 50 mg/kg-day.
On to `CCOC(=O)C(C)OC(=O)c1cc(Oc2ccc(C(F)(F)F)cc2Cl)ccc1[N+](=O)[O-]` (stereo not given) [Lactofen], for which the LEL with Mus musculus [7] (chronic, duration: 78 weeks, oral, hepatocytomegaly in males + Increased absolute and relative liver weight) is 1.5 mg/kg-day.
With `O=C(NC(=O)c1c(F)cccc1F)Nc1cc(Cl)c(OC(F)(F)C(F)C(F)(F)F)cc1Cl` (stereo not given) [Lufenuron], the no observed adverse effect level (NOAEL) with Rattus norvegicus [5] (chronic, duration: 2 years, Tonic-clonic seizures, histopathological effects on lungs, liver, non-glandular stomach, intestines and urinary tract.) was determined as 1.93 mg/kg-day.
`[Lu]` [Lutetium] showed an NOAEL in the series on Rattus norvegicus [4] (subchronic, duration: 90 days, diet, M/F, CRW) of 504 mg/kg-day.
`CN(C)c1ccccc1` [N,N-Dimethylaniline]: the NOAEL in the series on Rattus norvegicus [6] (short-term, duration: 14 days, gavage, Fischer 344) came to 93.8 mg/kg-day; with Rattus norvegicus [6] (subchronic, duration: 13 weeks, gavage, Fischer 344), 31.2 mg/kg-day; with Mus musculus [8] (short-term, duration: 15 days), 93.8 mg/kg-day; with Mus musculus [8] (subchronic, duration: 13 weeks), 31.2 mg/kg-day. The LOAEL in the series on Mus musculus [8] (short-term, duration: 15 days) turned out to be 188 mg/kg-day; in the series with Mus musculus [8] (subchronic, duration: 13 weeks) it was 62.5 mg/kg-day; in the series with Mus musculus [7] (subchronic, oral, gavage, splenomegaly, increased splenic hemosiderosis and hematopoiesis) it was 31.2 mg/kg-day. The NOEL with Rattus norvegicus [9] (duration: 13 weeks, M/F, Fischer 344, Body Weight Changes: decrease + Histopathology: Spleen-Hematopoiesis, extramedullary Spleen-Hemosiderosis Kidney-Pigmentation Liver-…) was under 31 mg/kg-day; in the series on Rattus norvegicus [9] (M, Sprague-Dawley, Clinical Observation: Dark-red discoloration of skin R + Functional Observational Battery: Dark-red discoloration of skin R + Hematology: …), 1 mg/kg-day.
Consider `c1ccc2ccccc2c1` [Naphthalene], for which the LOAEL in the series on Rattus norvegicus [10] (chronic, duration: 105 weeks, inhalation, M/F, Fischer 344, respiratory) was found to be 52.4 mg/m3; in the series on Rattus norvegicus [10] (reproduction developmental, duration: 9 days, oral, gavage, F, Sprague-Dawley, neurological) it was 50 mg/kg-day; in the series on Rattus norvegicus [2] (setting [13]) it was 200 mg/kg-day; with Mus musculus [7] (chronic, inhalation, nasal effects: hyperplasia and metaplasia in respiratory and olfactory epithelium, respectively), 52.4 mg/m3. In the series on Rattus norvegicus [2] (setting [13]), the NOAEL turned out to be 100 mg/kg-day.
Regarding `[Ni]` [Nickel], the NOAEL worked out at 0.03 mg/m3 with Rattus norvegicus [10] (chronic, duration: 2 years, inhalation, M/F, Fischer 344, respiratory); 0.06 mg/m3 in the series on Rattus norvegicus [10] (subchronic, duration: 13 weeks, inhalation, M/F, Fischer 344, respiratory); 7.8 mg/kg-day in the series with Rattus norvegicus [1] (chronic, duration: 2 years, diet, Organs, major: Decreased organ weight + Whole body: Decreased body weight).
As to `Brc1cc(Oc2cc(Br)c(Br)c(Br)c2Br)c(Br)c(Br)c1Br` [Octabromodiphenyl ether], the NOAEL turned out to be 1.1 mg/m3 with Rattus norvegicus [10] (subchronic, duration: 13 weeks, inhalation, nose only, M/F, Crl:CD(SD) BR, endocrine); 2.5 mg/kg-day with Rattus norvegicus [1] (subchronic, duration: 90 days, gavage, Liver: Histological changes); 2.51 mg/kg-day in the series on Rattus norvegicus [2] (setting [14]). The LOAEL in the series with Rattus norvegicus [2] (setting [14]) was 5 mg/kg-day.
The compound `CO[C@H]1C[C@H](O[C@@H]2/C(C)=C/C[C@@H]3C[C@@H](C[C@]4(CC[C@H](C)[C@@H](C5CCCCC5)O4)O3)OC(=O)[C@@H]3C=C(C)/C(=N/O)[C@H]4OC/C(=C\C=C\[C@@H]2C)[C@]43O)O[C@@H](C)[C@@H]1O` [Selamectin] returned an NOAEL in the series with Rattus norvegicus [5] (chronic, duration: 1 years, Increased liver and uterus/cervix weights) of 5 mg/kg-day.
